Assay results reported in PMC3402552 (Journal of Medicinal Chemistry, 2012).
One block for each compound: values may come before it.

Tests used:
5-HT2B = 5-HT2B (Homo sapiens, UniProt P41595); experiment: PDSP radioligand competition binding, 5-HT2B; conditions: Figure 9B
5-HT2A = 5-HT2A (Homo sapiens, UniProt P28223); experiment: PDSP radioligand competition binding, 5-HT2A; conditions: 5-HTR profiling
5-HT1B = 5-HT1B (Homo sapiens, UniProt P28222); experiment: PDSP radioligand competition binding, 5-HT1B; conditions: 5-HTR profiling
5-HT1E = 5-HT1E (Homo sapiens, UniProt P28566); experiment: PDSP radioligand competition binding, 5-HT1E; conditions: 5-HTR profiling
5-HT3 = target: T1, 5-HT3 (Homo sapiens, UniProt P46098); experiment: PDSP radioligand competition binding, 5-HT3; conditions: 5-HTR profiling
T1 sequence (P46098 24-478): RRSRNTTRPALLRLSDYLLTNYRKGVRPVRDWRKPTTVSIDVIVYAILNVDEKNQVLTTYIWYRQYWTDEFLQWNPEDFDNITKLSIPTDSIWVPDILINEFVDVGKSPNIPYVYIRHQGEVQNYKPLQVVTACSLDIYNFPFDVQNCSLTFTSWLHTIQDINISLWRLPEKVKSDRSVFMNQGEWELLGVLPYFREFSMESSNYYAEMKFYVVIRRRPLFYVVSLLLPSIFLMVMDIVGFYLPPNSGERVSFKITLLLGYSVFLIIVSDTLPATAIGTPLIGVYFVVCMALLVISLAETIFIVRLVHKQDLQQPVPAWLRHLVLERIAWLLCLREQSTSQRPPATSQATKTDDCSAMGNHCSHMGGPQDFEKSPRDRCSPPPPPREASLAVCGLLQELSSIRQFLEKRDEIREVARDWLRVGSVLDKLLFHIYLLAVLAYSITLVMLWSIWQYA

5-HT1A = target: T2, 5-HT1A (Homo sapiens, UniProt P08908); conditions: 5-HTR profiling
T2 sequence (P08908 1-422): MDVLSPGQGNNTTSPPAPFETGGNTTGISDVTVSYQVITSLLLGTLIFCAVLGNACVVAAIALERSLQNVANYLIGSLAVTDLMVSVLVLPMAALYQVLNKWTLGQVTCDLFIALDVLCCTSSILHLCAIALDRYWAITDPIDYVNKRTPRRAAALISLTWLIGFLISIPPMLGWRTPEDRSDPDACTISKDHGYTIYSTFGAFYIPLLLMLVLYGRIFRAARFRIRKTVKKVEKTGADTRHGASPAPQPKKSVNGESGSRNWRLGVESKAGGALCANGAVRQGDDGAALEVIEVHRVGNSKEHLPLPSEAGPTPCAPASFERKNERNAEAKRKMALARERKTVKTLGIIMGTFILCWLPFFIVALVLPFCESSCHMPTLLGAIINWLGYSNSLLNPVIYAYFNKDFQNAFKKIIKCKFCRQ

5-HT5a = 5-HT5a (Homo sapiens, UniProt P47898); conditions: 5-HTR profiling
5-HT6 = 5-HT6 (Homo sapiens, UniProt P50406); conditions: 5-HTR profiling
5-HT7 = 5-HT7 (Homo sapiens, UniProt P34969); conditions: 5-HTR profiling
5-HT2A F6.51L mutant = conditions: cited from earlier work
5-HT2A W6.48A mutant = conditions: cited from earlier work
5-HT2A S3.36A/C mutant = conditions: S3.36A/C mutations; cited from earlier work
5-HT2A F6.52L mutant = conditions: F6.52L mutation; cited from earlier work

Sequence of 5-HT7 (P34969 whole entry, species assumed): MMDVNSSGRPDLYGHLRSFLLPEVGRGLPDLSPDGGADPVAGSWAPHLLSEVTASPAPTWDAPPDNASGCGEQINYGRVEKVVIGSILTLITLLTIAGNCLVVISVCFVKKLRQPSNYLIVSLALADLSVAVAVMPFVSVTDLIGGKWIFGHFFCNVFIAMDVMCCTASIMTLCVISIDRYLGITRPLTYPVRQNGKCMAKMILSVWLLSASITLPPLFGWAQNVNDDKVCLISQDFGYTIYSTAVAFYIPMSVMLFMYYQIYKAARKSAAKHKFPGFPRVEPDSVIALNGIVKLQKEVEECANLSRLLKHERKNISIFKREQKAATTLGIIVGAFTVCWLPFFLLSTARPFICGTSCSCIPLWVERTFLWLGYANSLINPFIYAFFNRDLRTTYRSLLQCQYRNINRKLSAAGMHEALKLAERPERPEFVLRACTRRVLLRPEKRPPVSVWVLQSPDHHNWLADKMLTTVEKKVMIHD
Sequence of 5-HT1B (P28222 whole entry, species assumed): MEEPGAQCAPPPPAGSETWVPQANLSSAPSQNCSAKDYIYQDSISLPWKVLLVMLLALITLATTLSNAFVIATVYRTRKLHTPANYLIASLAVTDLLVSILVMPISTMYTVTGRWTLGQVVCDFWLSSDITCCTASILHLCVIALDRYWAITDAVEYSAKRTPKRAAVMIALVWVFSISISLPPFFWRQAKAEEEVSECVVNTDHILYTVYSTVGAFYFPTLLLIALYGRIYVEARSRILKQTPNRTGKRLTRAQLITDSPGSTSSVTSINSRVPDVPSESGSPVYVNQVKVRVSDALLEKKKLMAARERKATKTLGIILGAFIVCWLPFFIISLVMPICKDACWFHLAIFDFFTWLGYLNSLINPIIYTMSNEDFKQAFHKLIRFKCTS
Sequence of 5-HT6 (P50406 whole entry, species assumed): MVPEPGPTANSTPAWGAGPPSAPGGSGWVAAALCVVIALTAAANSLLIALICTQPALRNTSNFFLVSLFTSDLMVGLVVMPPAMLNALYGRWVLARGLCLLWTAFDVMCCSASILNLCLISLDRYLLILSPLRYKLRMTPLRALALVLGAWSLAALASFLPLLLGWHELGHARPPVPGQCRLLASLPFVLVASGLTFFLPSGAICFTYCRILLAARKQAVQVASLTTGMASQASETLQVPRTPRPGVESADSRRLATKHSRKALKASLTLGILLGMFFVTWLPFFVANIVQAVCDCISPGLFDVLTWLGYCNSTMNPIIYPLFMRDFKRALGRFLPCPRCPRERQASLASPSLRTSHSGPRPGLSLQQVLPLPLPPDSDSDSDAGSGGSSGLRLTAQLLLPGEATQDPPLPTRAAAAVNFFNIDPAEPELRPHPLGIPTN
Sequence of 5-HT2B (P41595 whole entry, species assumed): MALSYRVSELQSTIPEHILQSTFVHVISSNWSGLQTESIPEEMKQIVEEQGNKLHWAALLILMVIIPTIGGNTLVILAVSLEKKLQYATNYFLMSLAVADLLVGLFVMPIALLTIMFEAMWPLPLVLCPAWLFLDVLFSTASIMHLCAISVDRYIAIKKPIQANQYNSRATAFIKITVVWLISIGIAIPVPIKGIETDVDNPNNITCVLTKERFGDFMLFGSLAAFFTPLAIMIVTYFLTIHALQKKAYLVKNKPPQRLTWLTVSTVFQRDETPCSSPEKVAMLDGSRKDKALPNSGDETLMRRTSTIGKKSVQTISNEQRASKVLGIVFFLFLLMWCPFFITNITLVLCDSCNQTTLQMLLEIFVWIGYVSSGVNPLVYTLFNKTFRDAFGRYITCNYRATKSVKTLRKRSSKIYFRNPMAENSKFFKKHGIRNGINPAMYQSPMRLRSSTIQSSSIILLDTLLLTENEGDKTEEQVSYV
Sequence of 5-HT5a (P47898 whole entry, species assumed): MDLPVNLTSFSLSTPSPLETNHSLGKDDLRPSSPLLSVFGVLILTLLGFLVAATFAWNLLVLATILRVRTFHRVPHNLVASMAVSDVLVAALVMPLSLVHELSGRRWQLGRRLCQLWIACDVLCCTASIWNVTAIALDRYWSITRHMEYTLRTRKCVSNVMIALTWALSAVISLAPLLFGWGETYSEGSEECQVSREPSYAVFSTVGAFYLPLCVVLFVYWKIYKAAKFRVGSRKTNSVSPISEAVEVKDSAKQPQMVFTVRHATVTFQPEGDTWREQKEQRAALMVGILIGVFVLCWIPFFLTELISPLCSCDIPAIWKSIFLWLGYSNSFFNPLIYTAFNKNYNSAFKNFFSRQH
Sequence of 5-HT2A (P28223 whole entry, species assumed): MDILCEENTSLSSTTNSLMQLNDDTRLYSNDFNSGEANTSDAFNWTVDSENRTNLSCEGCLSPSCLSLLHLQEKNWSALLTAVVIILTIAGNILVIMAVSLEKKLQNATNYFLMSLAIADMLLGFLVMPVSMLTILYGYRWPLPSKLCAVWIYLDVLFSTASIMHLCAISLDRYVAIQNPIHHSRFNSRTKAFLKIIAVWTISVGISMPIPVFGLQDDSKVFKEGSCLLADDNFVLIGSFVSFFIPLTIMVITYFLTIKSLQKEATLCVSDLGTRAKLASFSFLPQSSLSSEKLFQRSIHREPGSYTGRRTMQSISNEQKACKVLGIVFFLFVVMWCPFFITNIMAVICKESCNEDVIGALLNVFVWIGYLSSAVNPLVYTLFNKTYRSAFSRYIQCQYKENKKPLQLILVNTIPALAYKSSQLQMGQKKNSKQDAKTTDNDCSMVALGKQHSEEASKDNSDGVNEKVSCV
Sequence of 5-HT1E (P28566 whole entry, species assumed): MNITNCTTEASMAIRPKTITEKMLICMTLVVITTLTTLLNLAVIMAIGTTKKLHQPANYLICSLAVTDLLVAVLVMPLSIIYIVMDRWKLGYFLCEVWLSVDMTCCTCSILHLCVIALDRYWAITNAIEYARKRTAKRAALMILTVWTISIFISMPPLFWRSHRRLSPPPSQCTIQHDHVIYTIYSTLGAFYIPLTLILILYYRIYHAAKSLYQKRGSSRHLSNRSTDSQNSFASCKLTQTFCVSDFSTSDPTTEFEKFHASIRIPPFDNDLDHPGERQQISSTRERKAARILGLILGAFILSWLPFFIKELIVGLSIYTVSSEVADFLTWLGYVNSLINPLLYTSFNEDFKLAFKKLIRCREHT

Compound: CNC(=O)c1cccc(Oc2ccc(NC(=O)Nc3ccc(Cl)c(C(F)(F)F)c3)cc2)c1 [HN01]
change of binding relative to sorafenib (in words) (5-HT2B): slight improvement of binding

binding (in words) (5-HT2A): weakly binds
binding (in words) (5-HT1B): doesn’t bind
binding (in words) (5-HT1E): doesn’t bind
binding (in words) (5-HT3): doesn’t bind
binding (in words) (5-HT1A): weakly binds
binding (in words) (5-HT5a): weakly binds
binding (in words) (5-HT6): weakly binds
binding (in words) (5-HT7): weakly binds
Compound: CNC(=O)c1cc(Oc2ccc(NC(=O)Nc3ccc(Cl)c(C(F)(F)F)c3)cc2)ccn1 [sorafenib]

Compound: O=C(c1ccc(F)cc1)C1CCN(CCn2c(=O)[nH]c3ccccc3c2=O)CC1 [ketanserin]
decrease of binding by mutation (5-HT2A F6.51L mutant): at least 800 fold
decrease of binding by mutation (5-HT2A W6.48A mutant): 7 fold
effect of mutation on binding affinity (in words) (5-HT2A S3.36A/C mutant): almost no effect
effect of mutation on binding affinity (in words) (5-HT2A F6.52L mutant): almost no effect
